The source of these data is ChEMBL document CHEMBL3045951, “Toxicities and sublethal effects of seven neonicotinoid insecticides on survival, growth and reproduction of imidacloprid-resistant cotton aphid, Aphis gossypii” (2011).

Common to all, as to assay type: functional
Experiment [1] has as its system Aphis gossypii. In words: Insecticidal activity against imidacloprid-resistant Aphis gossypii (cotton aphid) in cotton leaves assessed as longevity at LC20 concentration.
The subject of experiment [2] is Aphis gossypii.
Description: Insecticidal activity against imidacloprid-resistant Aphis gossypii (cotton aphid) in cotton leaves assessed as inhibition of honeydew excretion at LC20 concentration measured after 72 hr by dipping method
Experiment [3] deals with Aphis gossypii. In words: Insecticidal activity against imidacloprid-resistant Aphis gossypii (cotton aphid) in cotton leaves assessed as mortality measured after 72 hr by dipping method.
Experiment [4] relates to Aphis gossypii. In words: Resistance ratio, LC50 for Aphis gossypii RF45 (cotton aphid) to LC50 for Aphis gossypii SS.
The subject of experiment [5] is Aphis gossypii. The experiment in a line: Insecticidal activity against imidacloprid-resistant Aphis gossypii RF45 (cotton aphid) in cotton leaves assessed as mortality measured after 48 hr by dipping method.
The subject of experiment [6] is Aphis gossypii. In words: Insecticidal activity against Aphis gossypii SS (cotton aphid) in cotton leaves assessed as mortality measured after 48 hr by dipping method.
Experiment [7] concerns Aphis gossypii. The experiment in a line: Insecticidal activity against cotton aphid Aphis gossypii F33 (cotton aphid) in cotton leaves assessed as mortality measured after 48 hr by dipping method.
Experiment [8] deals with Aphis gossypii. In words: Insecticidal activity against cotton aphid Aphis gossypii F27 (cotton aphid) in cotton leaves assessed as mortality measured after 48 hr by dipping method.
The subject of experiment [9] is Aphis gossypii. The experiment in a line: Insecticidal activity against cotton aphid Aphis gossypii F24 (cotton aphid) in cotton leaves assessed as mortality measured after 48 hr by dipping method.
Experiment [10] deals with Aphis gossypii. The experiment in a line: Insecticidal activity against cotton aphid Aphis gossypii F21 (cotton aphid) in cotton leaves assessed as mortality measured after 48 hr by dipping method.
Experiment [11] has as its system Aphis gossypii. In words: Insecticidal activity against cotton aphid Aphis gossypii F15 (cotton aphid) in cotton leaves assessed as mortality measured after 48 hr by dipping method.
Experiment [12] concerns Aphis gossypii. In words: Insecticidal activity against cotton aphid Aphis gossypii F18 (cotton aphid) in cotton leaves assessed as mortality measured after 48 hr by dipping method.
The test system of experiment [13] is Aphis gossypii. In words: Insecticidal activity against cotton aphid Aphis gossypii F12 (cotton aphid) in cotton leaves assessed as mortality measured after 48 hr by dipping method.
Experiment [14] deals with Aphis gossypii. In words: Insecticidal activity against cotton aphid Aphis gossypii F6 (cotton aphid) in cotton leaves assessed as mortality measured after 48 hr by dipping method.
The subject of experiment [15] is Aphis gossypii. The experiment in a line: Insecticidal activity against cotton aphid Aphis gossypii F0 (cotton aphid) in cotton leaves assessed as mortality measured after 48 hr by dipping method.
In experiment [16] the test system is Aphis gossypii. In words: Resistance ratio, LC50 for Aphis gossypii F42 (cotton aphid) to LC50 for Aphis gossypii F0.
The test system of experiment [17] is Aphis gossypii. In words: Resistance ratio, LC50 for Aphis gossypii F45 (cotton aphid) to LC50 for Aphis gossypii F0.
For experiment [18], the system named is Aphis gossypii. In words: Resistance ratio, LC50 for Aphis gossypii F39 (cotton aphid) to LC50 for Aphis gossypii F0.
Experiment [19] has as its system Aphis gossypii. The experiment in a line: Resistance ratio, LC50 for Aphis gossypii F36 (cotton aphid) to LC50 for Aphis gossypii F0.
Experiment [20] concerns Aphis gossypii. In words: Resistance ratio, LC50 for Aphis gossypii F30 (cotton aphid) to LC50 for Aphis gossypii F0.
Experiment [21] relates to Aphis gossypii. In words: Resistance ratio, LC50 for Aphis gossypii F33 (cotton aphid) to LC50 for Aphis gossypii F0.
Experiment [22] deals with Aphis gossypii. The experiment in a line: Resistance ratio, LC50 for Aphis gossypii F27 (cotton aphid) to LC50 for Aphis gossypii F0.
Experiment [23] deals with Aphis gossypii. The experiment in a line: Resistance ratio, LC50 for Aphis gossypii F21 (cotton aphid) to LC50 for Aphis gossypii F0.
The test system of experiment [24] is Aphis gossypii. The experiment in a line: Resistance ratio, LC50 for Aphis gossypii F24 (cotton aphid) to LC50 for Aphis gossypii F0.
Experiment [25] deals with Aphis gossypii. The experiment in a line: Resistance ratio, LC50 for Aphis gossypii F18 (cotton aphid) to LC50 for Aphis gossypii F0.
The test system of experiment [26] is Aphis gossypii. In words: Resistance ratio, LC50 for Aphis gossypii F15 (cotton aphid) to LC50 for Aphis gossypii F0.
The test system of experiment [27] is Aphis gossypii. The experiment in a line: Resistance ratio, LC50 for Aphis gossypii F12 (cotton aphid) to LC50 for Aphis gossypii F0.
In experiment [28] the test system is Aphis gossypii. The experiment in a line: Resistance ratio, LC50 for Aphis gossypii F9 (cotton aphid) to LC50 for Aphis gossypii F0.
Experiment [29] relates to Aphis gossypii. The experiment in a line: Resistance ratio, LC50 for Aphis gossypii F6 (cotton aphid) to LC50 for Aphis gossypii F0.
Experiment [30] concerns Aphis gossypii. In words: Resistance ratio, LC50 for Aphis gossypii F3 (cotton aphid) to LC50 for Aphis gossypii F0.
Experiment [31] has as its system Aphis gossypii. The experiment in a line: Insecticidal activity against cotton aphid Aphis gossypii F9 (cotton aphid) in cotton leaves assessed as mortality measured after 48 hr by dipping method.
Experiment [32] has as its system Aphis gossypii. The experiment in a line: Insecticidal activity against cotton aphid Aphis gossypii F3 (cotton aphid) in cotton leaves assessed as mortality measured after 48 hr by dipping method.
The test system of experiment [33] is Aphis gossypii. In words: Insecticidal activity against cotton aphid Aphis gossypii F45 (cotton aphid) in cotton leaves assessed as mortality measured after 48 hr by dipping method.
Experiment [34] relates to Aphis gossypii. In words: Insecticidal activity against cotton aphid Aphis gossypii F42 (cotton aphid) in cotton leaves assessed as mortality measured after 48 hr by dipping method.
Experiment [35] has as its system Aphis gossypii. The experiment in a line: Insecticidal activity against cotton aphid Aphis gossypii F36 (cotton aphid) in cotton leaves assessed as mortality measured after 48 hr by dipping method.
The subject of experiment [36] is Aphis gossypii. The experiment in a line: Insecticidal activity against cotton aphid Aphis gossypii F39 (cotton aphid) in cotton leaves assessed as mortality measured after 48 hr by dipping method.
The subject of experiment [37] is Aphis gossypii. The experiment in a line: Insecticidal activity against cotton aphid Aphis gossypii F30 (cotton aphid) in cotton leaves assessed as mortality measured after 48 hr by dipping method.

The structures appear in SMILES notation. In brackets after ≈: the same amount, converted by molar mass.

As for `C/C(=N\C#N)N(C)Cc1ccc(Cl)nc1` [ACETAMIPRID], the Survival in experiment [1] came to 11.4 days. For the same compound, the “inhibition (INH)” value in [2] was 40.2%. The LC20 in [3] was 8.36 µg/mL (≈ 37.5 µM). For the same compound, the RatioLC50 in experiment [4] is given as 4.52. Further, the values for the LC50 in [5] and in experiment [6] were 12.4 microg/mL2 and 2.73 microg/mL2, respectively.

For the compound `CN/C(=N\[N+](=O)[O-])NCc1cnc(Cl)s1` [CLOTHIANIDINE], the Survival in experiment [1] came out at 6.61 days. For the same compound, the “inhibition (INH)” value in experiment [2] worked out at 72.7%. Also, in experiment [3], the LC20 came out at 1.23 µg/mL (≈ 4.93 µM). Besides, in [4], the RatioLC50 was determined as 1.2. Moreover, the LC50 is reported as 2.18 microg/mL2 in experiment [5] and 1.82 microg/mL2 in [6].

For the compound `CN/C(=N/CC1CCOC1)N[N+](=O)[O-]` (stereo not drawn) [DINOTEFURAN], the Survival in experiment [1] came out at 2.95 days. Besides, the “inhibition (INH)” value in [2] is listed as 82.2%. Moreover, in experiment [3], the LC20 is 0.88 µg/mL (≈ 4.35 µM). Besides, the RatioLC50 in experiment [4] is 1.07. Also, the LC50 amounted to 1.29 microg/mL2 in experiment [5] and 1.2 microg/mL2 in [6].

Regarding `O=[N+]([O-])/N=C1\NCCN1Cc1ccc(Cl)nc1` [IMIDACLOPRID], the Survival in experiment [1] is 13.6 days. In addition, the “inhibition (INH)” value in experiment [2] amounted to 23.4%. Further, the LC50 in experiment [7] is 10.7 microg/mL2; in experiment [8] it was 7.1 microg/mL2; in experiment [9] it was 6.35 microg/mL2; in experiment [10], 5.17 microg/mL2; in experiment [11], 3.34 microg/mL2; in experiment [12], 4.2 microg/mL2. Moreover, the LC50 in experiment [13] is given as 2.41 microg/mL2; in experiment [14] it was 1.23 microg/mL2; in [15], 0.32 microg/mL2; in [5], 13.5 microg/mL2; in [6], 0.32 microg/mL2; in experiment [31] it was 1.54 microg/mL2. The LC50 in experiment [32] is 0.55 microg/mL2; in experiment [33], 13.5 microg/mL2; in experiment [34], 13.2 microg/mL2; in experiment [35], 12.2 microg/mL2; in [36] it was 12.6 microg/mL2; in [37] it was 9.12 microg/mL2. Moreover, the LC20 in [3] stood at 10.6 µg/mL (≈ 41.5 µM). Besides, the RatioLC50 in experiment [4] was determined as 41.7; in experiment [16], 41.1; in experiment [17], 41.7; in [18], 39.3; in [19], 38.2; in experiment [20], 28.5. Further, the RatioLC50 in experiment [21] worked out at 33.4; in [22], 22.2; in [23] it was 16.2; in [24], 19.8; in [25], 13.1; in experiment [26] it was 10.4. Also, the RatioLC50 in experiment [27] is reported as 7.53; in [28], 4.81; in [29] it was 3.84; in experiment [30], 1.72.

For the compound `CCN(Cc1ccc(Cl)nc1)/C(=C/[N+](=O)[O-])NC` [NITENPYRAM], the Survival in [1] is 8.42 days. For the same compound, the “inhibition (INH)” value in experiment [2] was 28.3%. Further, the LC20 in experiment [3] is 10.5 µg/mL (≈ 38.8 µM). In [4], the RatioLC50 was 5.78. Besides, the LC50 was determined as 14.3 microg/mL2 in [5] and 2.47 microg/mL2 in experiment [6].

On to `N#C/N=C1\SCCN1Cc1ccc(Cl)nc1` [THIACLOPRID], for which the Survival in experiment [1] worked out at 10.6 days. For the same compound, in experiment [2], the “inhibition (INH)” value amounted to 36.9%. Also, in [3], the LC20 was determined as 5.45 µg/mL (≈ 21.6 µM). Further, the RatioLC50 in experiment [4] was determined as 3.68. For the same compound, the LC50 in experiment [5] is recorded as 8.69 microg/mL2; in experiment [6], 2.36 microg/mL2.

On to `CN1COCN(Cc2cnc(Cl)s2)/C1=N\[N+](=O)[O-]` [THIAMETHOXAM], for which the Survival in experiment [1] came to 6.78 days. Besides, in experiment [2], the “inhibition (INH)” value is recorded as 73.7%. The LC20 in [3] worked out at 0.96 µg/mL (≈ 3.29 µM). Moreover, in [4], the RatioLC50 was determined as 1.06. The LC50 in experiment [5] amounted to 1.69 microg/mL2; in [6] it was 1.6 microg/mL2.
